According to US20080171745A1, “METHODS RELATING TO THE TREATMENT OF FIBROSIS” (UNIVERSITY OF WASHINGTON, priority 2005, published 2008):

Key:
[1] = system: C57/B16 mice; assay: Bleomycin induced murine pulmonary fibrosis, lung sections stained with trichrome, body weight and survival; format: in vivo; conditions: for disease progression, as judged by reduced mortality, histopathology and endogenous gene expression: bleomycin murine model, 5 mg/Kg/day
Protocol: Murine models of bleomycin induced fibrosis have been developed in order to study fibrotic disease progression.
There is an absence of airway epithelium in lower left compared to upper left (see arrow heads) and extensive collagen deposition (lower left). On the sixth day, either saline (upper right) or ICG-001 (5 mgs/Kg/day) was administered for 10 days after which the mice were sacrificed and sectioned. Of interest is the upper right (saline treatment) showing lack of normal airway epithelialization, extensive collagen deposition and intra-airway hypercellularity (fibroblasts and inflammatory influx).

[2] = system: S100A4; assay: RT-PCR in bleomycin treated mice; format: in vivo; conditions: 5 mgs/Kg/day s.c.
[3] = system: collagen 1A2; assay: RT-PCR in bleomycin treated mice; format: in vivo; conditions: 5 mgs/Kg/day s.c.
[4] = system: IPF patient fibroblasts; assay: IPF patient fibroblasts, Western blots on whole cell lysates; format: cell-based, human
Protocol: Western blots for S100A4 (also know as FSP-1 or fibroblast specific protein-1) and E-Cadherin were performed on whole cell lysates.

[5] = bleomycin 5 days, then 5 mgs/Kg/day for 10 days
[6] = RPMI 1640+10% FBS, 2 days, whole cell lysates

O=C1[C@H](Cc2ccc(O)cc2)N2C(=O)CCN(C(=O)NCc3ccccc3)[C@H]2CN1Cc1cccc2ccccc12 [ICG-001]
airway histology (epithelialization) [1, 5]: airway looks essentially normal
body weight [1, 5]: regained normal body weight
collagen levels (trichrome stain) [1, 5]: normal collagen levels
survival ([1]; bleomycin 5 days, then 5 mgs/Kg/day for 10 days, untreated controls did not survive): survived
disease progression, as judged by reduced mortality, histopathology and endogenous gene expression [1]: not only halted but reversed disease progression
disease progression, as judged by reduced mortality, histopathology and endogenous gene expression ([1]; listed as ICG-011, 5 mg/kg/day): not only halts but reverses disease progression
S100A4 message (RT-PCR) [2]: reduced essentially to negative control
collagen 1A2 message (RT-PCR) [3]: reduced essentially to negative control
S100A4 and E-cadherin expression at the mRNA level ([4]; IPF patient fibroblasts): this is also true at the mRNA level
E-Cadherin expression, Western blot [4, 6]: increased E-Cadherin expression
S100A4 (FSP-1) expression, Western blot [4, 6]: decreased S100A4 expression
